Patent publication US7157569B2, “Mutation associated with epilepsy” (Bionomics Limited, priority 2000, dated 2007)
Entries after “also recorded” stand apart in the source; their conditions may differ.

Legend:
[1] = target: T1, GABRA1 and GABRB2 (α1β2) GABAA receptor (Homo sapiens, UniProt P14867+P47870); design: expressed in transfected cells; details: GABRA1 and GABRB2 alone; Draguhn et al, 1990; cited from earlier work
T1 sequence (P14867 28-456): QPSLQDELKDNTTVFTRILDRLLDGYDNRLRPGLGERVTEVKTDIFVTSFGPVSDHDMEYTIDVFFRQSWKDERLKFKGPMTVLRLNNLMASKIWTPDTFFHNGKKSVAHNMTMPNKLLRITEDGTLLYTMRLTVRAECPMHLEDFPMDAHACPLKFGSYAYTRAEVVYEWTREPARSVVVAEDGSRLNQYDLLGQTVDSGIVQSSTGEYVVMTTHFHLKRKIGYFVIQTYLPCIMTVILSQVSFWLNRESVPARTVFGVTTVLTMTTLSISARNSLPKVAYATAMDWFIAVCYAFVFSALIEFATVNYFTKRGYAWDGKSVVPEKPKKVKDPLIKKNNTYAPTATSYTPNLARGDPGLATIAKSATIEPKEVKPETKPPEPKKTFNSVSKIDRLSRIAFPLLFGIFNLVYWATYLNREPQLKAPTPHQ
T1 sequence (P47870 26-512): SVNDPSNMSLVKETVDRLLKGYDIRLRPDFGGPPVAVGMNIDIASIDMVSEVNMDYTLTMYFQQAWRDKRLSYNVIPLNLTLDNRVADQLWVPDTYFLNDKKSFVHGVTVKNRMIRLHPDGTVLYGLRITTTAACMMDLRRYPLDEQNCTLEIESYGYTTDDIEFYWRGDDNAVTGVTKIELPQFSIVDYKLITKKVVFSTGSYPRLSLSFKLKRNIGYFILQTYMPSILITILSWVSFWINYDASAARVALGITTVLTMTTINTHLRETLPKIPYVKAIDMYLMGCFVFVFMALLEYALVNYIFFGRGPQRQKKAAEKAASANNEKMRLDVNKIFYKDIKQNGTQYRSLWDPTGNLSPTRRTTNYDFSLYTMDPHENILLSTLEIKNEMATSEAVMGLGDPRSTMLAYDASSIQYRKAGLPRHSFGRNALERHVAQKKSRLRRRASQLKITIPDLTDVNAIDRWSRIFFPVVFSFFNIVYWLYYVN

[2] = target: T1, GABRA1 and GABRB2 (α1β2) GABAA receptor; assay: Zn2+ sensitivity of GABA-activated currents in Xenopus laevis oocytes, GABRA1 and GABRB2 alone; type: cell-based; design: expressed in transfected cells; host or cells: Xenopus laevis oocytes (cRNA injection)
Method: (§1) To test the effects of the GABRG2 mutations on GABAA receptor function, electrophysiological analysis of Xenopus laevis oocytes were conducted. cDNAs encoding the GABRA1, GABRB2 and GABRG2 subunits of the human GABAA receptor were subcloned into pcDNA3.1(+). The c245G→A and c1168C→T mutations were introduced separately into GABRG2 of the human GABAA receptor using the QuickChange site directed mutagenesis kit (Stratagene, La Jolla, Calif.). The oligonucleotide represented by SEQ ID NO:50 (5′ GGATATGACAATAAACTTCAGCCTGATATAGGAGTGAAGCC 3′) was used to incorporate the c245G→A mutation, while the oligonucleotide represented by SEQ ID NO:51 (5′ GCGAATTCATTAAATGGTTGCTGATCTTGGGCG 3′) was used to incorporate the c1168C→T mutation. Successful mutagenesis was identified by DNA sequencing. Wild-type and mutant cDNAs were linearised and gel purified and cRNA was made using the T7 RNA polymerase Message Machine in vitro RNA synthesis kit (Ambion). Samples of cRNA were run on denaturing agarose gels to ensure they were the correct size and were not degraded. Xenopus laevis oocytes (stage V or VI) were microinjected with ˜25 ng of cRNA representing the GABAA subunits. A tenfold molar excess of wild-type and mutant GABRG2 was used to promote assembly of the ternary (GABRA1:GABRB2:GABRG2) rather than binary (GABRA1:GABRB2) complex. […]

[3] = target: T2, wild-type (α1β2γ2) GABAA receptor (Homo sapiens, UniProt P14867+P18507+P47870); design: expressed in transfected cells; details: correct assembly of GABRA1, GABRB2 and GABRG2; Draguhn et al, 1990; cited from earlier work
[4] = target: T3, mutant [α1β2γ2 (R43Q)] GABAA receptor (Homo sapiens, UniProt P14867+P18507+P47870, R82Q/T120M/T181S); assay: Zn2+ sensitivity of GABA-activated currents in Xenopus laevis oocytes, R43Q mutant channels; type: cell-based
T3 construct: expressed in transfected cells; host or cells: Xenopus laevis oocytes (cRNA injection)
T3 sequence (P14867 28-456): T1 sequence (P14867 28-456)
T3 sequence (P47870 26-512): T1 sequence (P47870 26-512)
T3 sequence (P18507 40-467 isoform P18507-1 R82Q/T120M/T181S): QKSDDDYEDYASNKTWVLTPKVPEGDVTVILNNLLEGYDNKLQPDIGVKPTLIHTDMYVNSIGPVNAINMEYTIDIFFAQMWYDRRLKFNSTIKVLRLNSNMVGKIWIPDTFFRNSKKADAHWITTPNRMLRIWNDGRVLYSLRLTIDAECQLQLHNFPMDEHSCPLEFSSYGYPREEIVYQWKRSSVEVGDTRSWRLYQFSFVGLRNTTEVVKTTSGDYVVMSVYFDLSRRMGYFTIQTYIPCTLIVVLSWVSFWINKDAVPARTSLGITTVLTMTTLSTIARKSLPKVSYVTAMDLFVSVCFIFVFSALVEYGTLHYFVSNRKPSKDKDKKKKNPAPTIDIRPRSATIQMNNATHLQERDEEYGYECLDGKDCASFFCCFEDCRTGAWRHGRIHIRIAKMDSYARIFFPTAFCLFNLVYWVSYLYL
Method: as §1

[5] = target: T2, wild-type (α1β2γ2) GABAA receptor; assay: Zn2+ sensitivity of GABA-activated currents in Xenopus laevis oocytes, wild-type channels; type: cell-based; design: expressed in transfected cells; host or cells: Xenopus laevis oocytes (cRNA injection); details: Zn2+ 10 μM, n=9
Method: as §1

[6] = target: T4, GABAA receptor containing GABRG2(R43Q) (Homo sapiens, UniProt P14867+P18507+P47870, R82Q/T120M/T181S); assay: GABA electrophysiological response in Xenopus oocytes, GABRG2(R43Q); type: cell-based; details: oocytes expressing GABRG2 or GABRG2(R43Q)
T4 construct: expressed in transfected cells; host or cells: Xenopus laevis oocytes (cRNA injection)
T4 sequence (P14867 28-456): T1 sequence (P14867 28-456)
T4 sequence (P47870 26-512): T1 sequence (P47870 26-512)
T4 sequence (P18507 40-467 isoform P18507-1 R82Q/T120M/T181S): T3 sequence (P18507 40-467 isoform P18507-1 R82Q/T120M/T181S)
Method: as §1

[7] = target: T5, GABRA1:GABRB2 GABAA receptor (Homo sapiens, UniProt P14867+P47870); assay: GABA current response in Xenopus laevis oocytes, GABRA1:GABRB2:water; type: cell-based; details: 1:1:10 GABRA1:GABRB2:water injection ratio
T5 construct: expressed in transfected cells; host or cells: Xenopus laevis oocytes (cRNA injection)
T5 sequence (P14867 28-456): T1 sequence (P14867 28-456)
T5 sequence (P47870 26-512): T1 sequence (P47870 26-512)
Method: as §1

[8] = target: T6, GABRA1:GABRB2:GABRG2 wild-type GABAA receptor (Homo sapiens, UniProt P14867+P18507+P47870); assay: GABA current response in Xenopus laevis oocytes, wild-type GABRG2; type: cell-based; details: 1:1:10 ratio with wild-type GABRG2
T6 construct: expressed in transfected cells; host or cells: Xenopus laevis oocytes (cRNA injection)
Method: as §1

[9] = tested on: GABRA1:GABRB2:GABRG2(Q351X) GABAA receptor; assay: GABA current response in Xenopus laevis oocytes, Q351X mutant; type: cell-based, human; details: 1:1:10 GABRA1:GABRB2:GABRG2(Q351X) cRNA injection ratio
Method: as §1

[10] = target: T7, wild-type GABRA1:GABRB2:GABRG2 (α1β2γ2) GABAA receptor (Homo sapiens, UniProt P14867+P18507+P47870); assay: Diazepam potentiation of GABA currents, two-electrode voltage clamp in Xenopus laevis oocytes, wild-type channels; type: cell-based; details: GABA 1 μM, diazepam 1 μM
T7 construct: expressed in transfected cells; host or cells: Xenopus laevis oocytes (cRNA injection)
Method: as §1, with “The oligonucleotide represented by SEQ ID NO:50 (5′ GGATATGACAATAAACTTCAGCCTGATATAGGAGTGAAGCC 3′) was used to incorporate the c245G→A mutation, while the oligonucleotide represented by SEQ ID NO:51 (5′ GCGAATTCATTAAATGGTTGCTGATCTTGGGCG 3′) was used to incorporate the c1168C→T mutation.” left out, “complex. Oocytes were then stored in OR2 buffer (82.5 mM NaCl, 2 mM KCl, 1 mM MgCl2, 5 mM HEPES, pH 7.5, supplemented with 2% foetal bovine serum, 100 U/ml penicillin, 100 μg/ml streptomycin, Life Technologies) and incubated at 18° C. for three to five days to allow for adequate receptor expression.” for “complex.”

[11] = target: T8, mutant GABRA1:GABRB2:GABRG2(R43Q) [α1β2γ2 (R43Q)] GABAA receptor (Homo sapiens, UniProt P14867+P18507+P47870, R82Q/T120M/T181S); assay: Diazepam potentiation of GABA currents, two-electrode voltage clamp in Xenopus laevis oocytes, R43Q mutant channels; type: cell-based; details: for small, insignificant decrease in GABA current with diazepam, mean±SEM: GABA 1 μM, diazepam 1 μM, R43Q mutant channels, n=17, a decrease, not a potentiation
T8 construct: expressed in transfected cells; host or cells: Xenopus laevis oocytes (cRNA injection)
T8 sequence (P14867 28-456): T1 sequence (P14867 28-456)
T8 sequence (P47870 26-512): T1 sequence (P47870 26-512)
T8 sequence (P18507 40-467 isoform P18507-1 R82Q/T120M/T181S): T3 sequence (P18507 40-467 isoform P18507-1 R82Q/T120M/T181S)
Method: (§2) To test the effects of the GABRG2 mutations on GABAA receptor function, electrophysiological analysis of Xenopus laevis oocytes were conducted. cDNAs encoding the GABRA1, GABRB2 and GABRG2 subunits of the human GABAA receptor were subcloned into pcDNA3.1(+). The c245G→A and c1168C→T mutations were introduced separately into GABRG2 of the human GABAA receptor using the QuickChange site directed mutagenesis kit (Stratagene, La Jolla, Calif.). […] Successful mutagenesis was identified by DNA sequencing. Wild-type and mutant cDNAs were linearised and gel purified and cRNA was made using the T7 RNA polymerase Message Machine in vitro RNA synthesis kit (Ambion). Samples of cRNA were run on denaturing agarose gels to ensure they were the correct size and were not degraded. Xenopus laevis oocytes (stage V or VI) were microinjected with ˜25 ng of cRNA representing the GABAA subunits. A tenfold molar excess of wild-type and mutant GABRG2 was used to promote assembly of the ternary (GABRA1:GABRB2:GABRG2) rather than binary (GABRA1:GABRB2) complex. Oocytes were then stored in OR2 buffer (82.5 mM NaCl, 2 mM KCl, 1 mM MgCl2, 5 mM HEPES, pH 7.5, supplemented with 2% foetal bovine serum, 100 U/ml penicillin, 100 μg/ml streptomycin, Life Technologies) and incubated at 18° C. for three to five days to allow for adequate receptor expression. Current recordings from oocytes were made using a two-electrode voltage clamp (AxoClamp 2B, Axon Instruments), with recordings made at a holding potential of −80 mV. Electrodes were filled with 3 M KCl and were of 1–2 MΩ resistance. Oocytes were continuously perfused with ND96 solution (96 mM NaCl, 2 mM KCl, 1 mM MgCl2, 1.8 mM BaCl2 and 5 mM HEPES, pH 7.5). gamma-Aminobutyric acid (GABA; Sigma-Aldrich, Australia) was applied by bath perfusion.

[12] = tested on: GABAA receptor from 50:50 mixture of GABRG2 and GABRG2(R43Q); assay: Diazepam potentiation in oocytes injected with 50:50 mixture of GABRG2 and GABRG2(R43Q) cRNA; type: cell-based, human; details: n=8
Method: as §2, with “Current recordings from oocytes were made using a two-electrode voltage clamp (AxoClamp 2B, Axon Instruments), with recordings made at a holding potential of −80 mV. Electrodes were filled with 3 M KCl and were of 1–2 MΩ resistance. Oocytes were continuously perfused with ND96 solution (96 mM NaCl, 2 mM KCl, 1 mM MgCl2, 1.8 mM BaCl2 and 5 mM HEPES, pH 7.5). gamma-Aminobutyric acid (GABA; Sigma-Aldrich, Australia) was applied by bath perfusion.” left out

T2 sequence (P18507 40-467 isoform P18507-1 limits assumed, one chain of several): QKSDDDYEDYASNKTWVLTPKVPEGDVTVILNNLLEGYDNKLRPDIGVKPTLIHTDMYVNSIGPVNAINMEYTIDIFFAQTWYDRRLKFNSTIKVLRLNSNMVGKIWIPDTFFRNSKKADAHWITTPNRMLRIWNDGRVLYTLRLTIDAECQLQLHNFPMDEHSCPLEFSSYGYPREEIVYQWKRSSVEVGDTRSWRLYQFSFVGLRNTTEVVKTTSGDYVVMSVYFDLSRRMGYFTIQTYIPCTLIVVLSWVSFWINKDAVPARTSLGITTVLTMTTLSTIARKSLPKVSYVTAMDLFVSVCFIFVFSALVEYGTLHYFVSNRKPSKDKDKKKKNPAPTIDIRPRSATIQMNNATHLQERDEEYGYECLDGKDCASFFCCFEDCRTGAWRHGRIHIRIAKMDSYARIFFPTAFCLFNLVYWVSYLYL
T7 sequence (P18507 40-467 isoform P18507-1 limits assumed, one chain of several): as above
T6 sequence (P18507 40-467 isoform P18507-1 limits assumed, one chain of several): as above

[Zn+2] [Zn^2+]
sensitivity of currents to Zn2+ [1]: extremely sensitive | GABA-activated current abolished by Zn2+ ([2]; Zn2+ 10 μM, GABA 100 μM, α1β2 alone, n=8): 89±7% | effect of Zn2+ on GABA-activated currents ([2]; oocytes expressing only GABRA1 and GABRB2): totally abolished | sensitivity of currents to Zn2+ [3]: significantly less sensitive | effect of Zn2+ compared with wild-type GABRG2 ([4]; GABRG2(R43Q) versus GABRG2 expressing oocytes): same effect | partial inhibition of the GABA current by Zn2+ ([4]; Zn2+ 10 μM, R43Q mutant, n=9): 40±5% | partial inhibition of the GABA current by Zn2+ [5]: 37±2%

NCCCC(=O)O [GABA, gamma-Aminobutyric acid]
electrophysiological responses to GABA versus wild-type GABRG2 [6]: indistinguishable | current response to GABA [7]: gave current responses | current response to GABA [8]: strong current responses | current response to GABA [9]: abolishes responses to GABA; also recorded: no current response

CN1C(=O)CN=C(c2ccccc2)c2cc(Cl)ccc21 [diazepam]
increase of GABA currents by diazepam (potentiation), mean±SEM ([10]; n=20, P<0.01): 303±33% | increase of GABA currents by diazepam (potentiation), mean±SEM ([10]; n=20, P<0.01, listed as Diazepam): 302±33% | small, insignificant decrease in GABA current with diazepam, mean±SEM [11]: 10±6% | small, insignificant decrease in GABA current with diazepam, mean±SEM ([11]; listed as Diazepam): 10%±6 | diazepam potentiation ([11]; receptors containing the GABRG2(R43Q) subunit): completely abolished | intermediate diazepam potentiation [12]: 129±30%
